The target in assay [1] is GPCR40 (Homo sapiens, UniProt O14842). Conditions: doses of 5 mM and below; FIG. 7A. The procedure: (§1) Cells were grown in DMEM medium containing 10% FBS, 1× non-essential amino acids (Gibco #111450-040), 20 mM HEPES and 250 μg/mL Geneticin® (Gibco #10131-035). Cells were harvested with 0.25% Trypsin/EDTA (Gibco #25200-056), pelleted at 1,200×g for 6 minutes and resuspended in DMEM media described above minus Geneticin®. The cells were seeded at 4×10^4 cells/well/100 μL of a clear bottom/black 96-well plate and grown overnight. The calcium mobilization assays was performed using Screen Quest Fluo-8 Medium Removal Calcium Assay Kit (AAT Bioquest #36308) according to the manufacturer's protocol. Briefly, cells were washed with 100 μL volume of Hank's balanced salt solution, 20 mM HEPES, pH 7.4 and loaded with a buffer containing HBSS, 20 mM HEPES, 1× Pluronic F127 and the Fluo-8 NW dye. The cells were incubated for 30 minutes at 37° C. followed by a 30 minute room temperature incubation. Drug stocks were prepared at 100× concentration and diluted 1:33 in HBSS, 20 mM HEPES, pH 7.4 in a 96-well plate (Corning #3641). Calcium mobilization was measured using the FlexStation 3 (Molecular Devices) at excitation wavelength of 490 nm and emission wavelength of 525 nm. Fluorescence was measured for 180 seconds at 5 second intervals with the addition of compound at a 1:3 dilution after 15 seconds. Peak fluorescence values were calculated using SoftMax Pro 5 (Molecular Devices). The fluorescence values obtained from control wells without cells are subtracted from wells containing treated cells to correct for background. The ratio of fluorescence values of treated cells to vehicle control wells was used to calculate fold activity of the compounds.
(§2) The specificity of the agonist activity was determined by testing in the cell lines that over-express GPCR40 and GPCR 109a.

Assay [2] addresses GPCR109a (Homo sapiens, UniProt Q8TDS4). To be noted: doses of 5 mM and below; FIG. 6A. The protocol:
as §1, §2

Assay [3] addresses T1, MRGD (Homo sapiens, UniProt Q8TDS7). Briefly: Calcium mobilization in MRGD over-expressing cells. Conditions: for activation of calcium mobilization: Example 6, FIG. 10, entire dose range. Format: cell-based. On the set-up: host or cells: ChemiScreen over-expressing cell line, given as 'HEK 293T cells (Chem-1, EMD Millipore)'. The procedure: as §1
MRGD cells (EMD Millipore, MA) were treated with either β-alanine, or alamandine at various concentrations (FIG. 10) and calcium mobilization was monitored using a FlexStation 3 Microplate Reader (Molecular Devices) as described in Example 4.
(In general: A change in cytosolic calcium serves as a functional read-out for many receptors and channels.)

In assay [4] the test system is diabetic mice. Conditions: has been shown; cited from earlier work.
Assay [5] concerns C57BL/6J mice. Briefly: Oral glucose tolerance test (OGTT). It counts as in vivo, mouse. To be noted: for significance of blood glucose lowering in OGTT / blood glucose in response to a glucose load (OGTT): Example 5, FIG. 9; for blood glucose in response to a glucose load (OGTT): 1, 0.5 and 0.1 mg/g body weight; for overall effect on blood glucose in OGTT: Example 8, FIG. 13, GABA 200 mg/kg, DT-109 1 mg/g, p<0.01 2-way ANOVA; for overall effect on blood glucose in OGTT vs vehicle: Example 9, FIG. 14, DT-110 1 mg/g, alamandine 10 mg/g, metformin 0.2 mg/g. The procedure:
C57BL/6J mice were received from Jackson Laboratories at 4 weeks old and aged to 7 weeks and then grouped by body weight into 4 groups of 10. The mice were fasted overnight (12 hours) prior to the assay. Body weights and blood glucose (FreeStyle Lite glucometer) levels were determined. […] At 30, 60, 90, and 120 minutes glucose levels were measured using whole blood collected from the tip of the tail via needle puncture. Upon the final 120 min measurement, food was returned to the mice.
Oral glucose tolerance tests (OGTTs) were performed as described in Example 1.
(§3) C57BL/6J mice were received from Jackson Laboratories at 4 weeks old and aged to 7 weeks and then grouped by body weight into 4 groups of 10. The mice were fasted overnight (12 hours) prior to the assay. Body weights and blood glucose (FreeStyle Lite glucometer) levels were determined. […] At 30, 60, 90, and 120 minutes glucose levels were measured using whole blood collected from the tip of the tail via needle puncture.
as §3

Assay [6] deals with MrgprD^−/− (KO) mice. Conditions: P<0.05 KO vs. WT. The procedure: (§4) The mice were fasted overnight and their fasting glucose levels were measured. […] Blood glucose levels were measured at 30, 60, 90 and 120 minutes after glucose loading.
as §4

Assay [7] has as its system C57/BL/6J mice and diabetic mouse models. To be noted: previous studies (Zhang 2013; U.S. Pat. No. 8,664,177); cited from earlier work.
In assay [8] the test system is STC-1 cells. To be noted: has been shown; cited from earlier work.
The subject of assay [9] is STC-1 cells. Briefly: GLP-1 secretion from STC-1 cells (ELISA). It counts as cell-based, mouse. To be noted: STC-1 cells, co-treatment with DT-110, 2 hours; FIG. 3. The procedure:
The pathways and sites of action of H89 and U73122 are graphically represented in FIG. 2.
Supernatants were collected for GLP-1 measurement. and the GLP-1 concentration was measured using a total GLP-1 (7-36 and 9-36) ELISA kit according to manufacturer's instruction (Alpco. Salem, N.H.).
In general terms: An ELISA detects its analyte on a solid surface through an enzyme-linked reagent.

For assay [10], the target named is T1, MRGD. Briefly: Calcium mobilization in MRGD cells, antagonist mode. It counts as cell-based. Further details: host or cells: ChemiScreen over-expressing cell line, given as 'HEK 293T cells (Chem-1, EMD Millipore)'. Conditions: 15 min pre-incubation 30 nM-3 μM, FIG. 11. The procedure: A similar assay was run in the antagonist mode where cells were first incubated with 0, 30 nM, 300 nM or 3 μM alamandine as shown in FIG. 11 (x-axis) for 15 minutes. Then one of 3 different agonists was added to the wells, at their EC90 and the calcium mobilization recorded.

For assay [11], the system named is eNOS. The assay is described as follows: eNOS mRNA expression in HUVEC. Format: cell-based, human. Conditions: FIG. 15. The text has this:
It has been shown that activation of MRGD by alamandine plays an important role in vasodilation by increasing nitric oxide (NO) production. NO produced by the endothelium is an important protective molecule in the vasculature and is mainly generated by the enzyme endothelial NO synthase (eNOS) in blood vessels. Enhancing the expression of eNOS has been considered as possible therapeutic strategy for reducing cardiovascular risk.

For assay [12], the target named is MAS-related G-protein-coupled receptor member D (MRGD) (human, UniProt Q8TDS7 1-321). Briefly: cell-based or functional assay.

“Also recorded” adds a separate entry of the source. Where two headings read alike, the source gives them in different places.

T1 sequence (Q8TDS7 whole entry): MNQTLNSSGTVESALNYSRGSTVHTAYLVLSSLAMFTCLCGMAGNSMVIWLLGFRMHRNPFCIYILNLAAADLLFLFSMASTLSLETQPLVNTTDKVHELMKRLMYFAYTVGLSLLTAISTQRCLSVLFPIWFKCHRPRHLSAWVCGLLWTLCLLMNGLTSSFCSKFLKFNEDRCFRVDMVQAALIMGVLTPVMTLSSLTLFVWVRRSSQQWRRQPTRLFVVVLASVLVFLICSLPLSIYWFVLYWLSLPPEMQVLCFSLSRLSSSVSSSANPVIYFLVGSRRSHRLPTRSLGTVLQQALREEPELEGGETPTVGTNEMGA
Sequence of MAS-related G-protein-coupled receptor member D (MRGD) (Q8TDS7 whole entry): as above
Sequence of GPCR40 (O14842 whole entry): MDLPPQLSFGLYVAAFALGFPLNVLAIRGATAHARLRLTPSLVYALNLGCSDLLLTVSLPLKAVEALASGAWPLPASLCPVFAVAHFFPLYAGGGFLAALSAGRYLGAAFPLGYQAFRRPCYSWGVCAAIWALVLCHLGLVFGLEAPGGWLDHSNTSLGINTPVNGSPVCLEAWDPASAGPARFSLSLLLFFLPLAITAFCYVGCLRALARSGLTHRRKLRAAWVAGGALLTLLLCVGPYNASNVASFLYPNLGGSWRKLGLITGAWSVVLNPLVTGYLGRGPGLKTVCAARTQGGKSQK
Sequence of GPCR109a (Q8TDS4 whole entry): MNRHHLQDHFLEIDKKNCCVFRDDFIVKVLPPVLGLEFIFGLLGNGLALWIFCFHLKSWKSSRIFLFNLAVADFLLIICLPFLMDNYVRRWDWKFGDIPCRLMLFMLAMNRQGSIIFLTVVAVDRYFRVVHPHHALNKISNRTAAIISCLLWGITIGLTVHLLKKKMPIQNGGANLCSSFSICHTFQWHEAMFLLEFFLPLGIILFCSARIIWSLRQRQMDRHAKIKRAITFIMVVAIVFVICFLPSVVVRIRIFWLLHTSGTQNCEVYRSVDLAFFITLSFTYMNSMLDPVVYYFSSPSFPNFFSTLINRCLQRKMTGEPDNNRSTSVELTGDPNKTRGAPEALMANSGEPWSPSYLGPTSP

For the molecule `CC(C)C[C@H](NC(=O)CNC(=O)CN)C(=O)O`, the “agonist activity (Ca2+ flux)” value in assay [1] and in assay [2] was “inactive” in each case. The calcium mobilization activity entry in [3] (at 5 mM, highest dose used, Example 4) is given as “active”. Also, the GLP-1 level entry in assay [4] is “elevate GLP-1 level”. Also, in assay [5] (Example 1, FIG. 1A, 2 mg/g glucose plus 1.0, 0.5 or 0.1 mg/g oral gavage, 30-120 min), the “blood glucose levels during OGTT” value is reported as “lowers blood glucose levels in C57BL/6J mice during OGTT in a dose dependent manner”. Moreover, in assay [5] (Example 1, FIG. 1B, 1.0, 0.5 or 0.1 mg/g oral, p<0.01 vs control), the “blood glucose area under curve (AUC) in OGTT” value is recorded as “significantly lowers blood glucose in mice in a dose dependent manner”. In addition, the “significance of blood glucose lowering in OGTT” value in [5] (0.1 mg/g), in assay [5] (0.5 mg/g) and in assay [5] (1 mg/g) was “significant” in each case. In addition, the “blood glucose in response to a glucose load (OGTT)” value in assay [5] is reported as “lower blood glucose in response to a glucose load, in a dose-dependent manner”. Moreover, the “overall effect on blood glucose in OGTT” value in assay [5] is “overall significant effect in lowering blood glucose”. In addition, the “reduction of blood glucose levels in KO mice compared with WT mice (OGTT)” value in [6] (0.25 mg/g with 2 mg/g glucose oral) and in assay [6] (0.5 mg/g with 2 mg/g glucose oral) was “significantly impaired” throughout. Moreover, the blood glucose result in assay [7] was “lower blood glucose”. In addition, in assay [8], the GLP-1 secretion result is listed as “stimulate GLP-1 secretion”.
Consider `NCCCC(=O)O` [GABA, gamma amino butyric acid, reference compound], for which the EC50 in [3] (Example 7, FIG. 12, read-out: half maximal effective concentration (EC50)) is ~68 µM. For the same molecule, the “overall effect on blood glucose in OGTT” value in [5] is recorded as “overall significant effect in lowering blood glucose”.
Consider `O=S(=O)(NCCNC/C=C/c1ccc(Br)cc1)c1cccc2cnccc12` [H89], for which, in assay [9], the “inhibition of DT-110 stimulated GLP-1 secretion” value is on record as “inhibit DT-110 stimulated GLP-1 secretion; also recorded: partially inhibited”.
On to `COc1ccc2c(c1)CC[C@@H]1[C@@H]2CC[C@]2(C)[C@@H](NCCCCCCN3C(=O)C=CC3=O)CC[C@@H]12` [U73122], for which, in [9], the “inhibition of DT-110 stimulated GLP-1 secretion” value is listed as “inhibit DT-110 stimulated GLP-1 secretion; also recorded: partially inhibited”.
Take `CN(C)C(=N)N=C(N)N` [metformin, reference compound]: the “overall effect on blood glucose in OGTT vs vehicle” value in assay [5] is “significant effect on blood glucose”. The “effect on blood glucose compared with alamandine” value in assay [5] (Example 9, P<0.001) is listed as “significantly better than alamandine”.
Consider `NCCC(=O)O` [β-alanine, reference compound], for which the EC50 in [3] (Example 4, FIG. 8, DT-110 lot 2, read-out: EC50) is 7.5 µM. In addition, in assay [3], the “activation of calcium mobilization” value was “stimulated calcium mobilization”. The “potency relative to DT-110 or DT-109” value in [3] (FIG. 8) was “more than 10 fold”. Also, the “significance of blood glucose lowering in OGTT” value in assay [5] (0.1 mg/g) is “did not”; in [5] (0.5 mg/g), “showed significance”; in [5] (1 mg/g) it was “showed significance”. Besides, the “blood glucose in response to a glucose load (OGTT)” value in [5] is listed as “lower blood glucose in response to a glucose load, in a dose-dependent manner”.
Turning to alamandine, the “effect on DT-109 signaling” value in [10] (DT-109 at EC90) is reported as “did not have any significant effect”. Also, in assay [10] (DT-110 at EC90), the “effect on DT-110 signaling” value is “did not have any significant effect”. Moreover, the “effect on β-alanine signaling” value in assay [10] (β-alanine at EC90, P<0.05) was “significantly decreased β-alanine signaling”. For the same molecule, the “activation of calcium mobilization” value in assay [3] is reported as “no activation of calcium mobilization; also recorded: did not”. Further, the “eNOS mRNA levels” value in [11] (30 minutes, vs control) was “the same”. Moreover, the eNOS expression entry in assay [11] (60 minutes) was “increased eNOS expression”; in assay [11] (120 minutes), “returned to control levels”. Besides, the “overall effect on blood glucose in OGTT vs vehicle” value in [5] is given as “weak but overall significant effect”.
In the case of GGL [DT-109, three amino acid peptide glycine-glycine-leucine (GGL)], in [12], the “EC50, calcium mobilization in MRGD over-expressing cells (FIG. 5)” value amounted to 600 µM and the “EC50, calcium mobilization in the MRGD cell line (FIG. 8)” value is 178 µM.

The record behind these values is US20180074053A1 (priority 2016, published 2018).
